Legend:
FBXL10 = biological target: T1, FBXL10 (Homo sapiens, UniProt Q8NHM5); assay: FBXL10 in vitro enzyme inhibition assay (AlphaScreen); format: biochemical; conditions: Table 5
T1 construct: purchased BPS Bioscience 50120
T1 sequence (Q8NHM5 1-650): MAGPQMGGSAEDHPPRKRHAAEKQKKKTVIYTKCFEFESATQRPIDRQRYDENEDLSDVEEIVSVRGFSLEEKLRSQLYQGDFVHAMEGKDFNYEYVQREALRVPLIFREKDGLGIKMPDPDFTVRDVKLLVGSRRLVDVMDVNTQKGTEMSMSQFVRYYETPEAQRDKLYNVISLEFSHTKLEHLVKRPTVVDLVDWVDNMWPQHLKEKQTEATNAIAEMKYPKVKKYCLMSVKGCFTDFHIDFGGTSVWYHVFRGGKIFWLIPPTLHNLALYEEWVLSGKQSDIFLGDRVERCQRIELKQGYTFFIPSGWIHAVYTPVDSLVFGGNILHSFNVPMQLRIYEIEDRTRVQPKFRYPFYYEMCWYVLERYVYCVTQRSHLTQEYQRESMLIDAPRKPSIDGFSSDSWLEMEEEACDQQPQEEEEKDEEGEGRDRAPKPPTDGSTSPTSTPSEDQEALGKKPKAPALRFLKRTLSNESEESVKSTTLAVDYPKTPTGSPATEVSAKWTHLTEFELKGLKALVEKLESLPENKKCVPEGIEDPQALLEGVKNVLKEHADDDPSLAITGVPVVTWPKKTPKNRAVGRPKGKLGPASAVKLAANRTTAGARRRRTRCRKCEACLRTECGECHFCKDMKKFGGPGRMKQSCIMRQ
Outline: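 Reactions ran 1 h at room temperature with 0.3 nM FBXL10 (aa 1-650, baculovirus). Substrates were 30 nM biotin-H3K36me2 peptide and 0.2 µM α-ketoglutarate in pH 7.3 HEPES buffer containing Fe(II) and ascorbate.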

JMJD3 = biological target: T2, JMJD3 (Homo sapiens, UniProt O15054); assay: JMJD3 in vitro enzyme inhibition assay (AlphaScreen); format: biochemical; conditions: Table 5; 1 nM JMJD3, H3K27me3-biotin labeled peptide
T2 construct: purchased BPS Bioscience 50115
T2 sequence (O15054 1043-1682 isoform O15054-1): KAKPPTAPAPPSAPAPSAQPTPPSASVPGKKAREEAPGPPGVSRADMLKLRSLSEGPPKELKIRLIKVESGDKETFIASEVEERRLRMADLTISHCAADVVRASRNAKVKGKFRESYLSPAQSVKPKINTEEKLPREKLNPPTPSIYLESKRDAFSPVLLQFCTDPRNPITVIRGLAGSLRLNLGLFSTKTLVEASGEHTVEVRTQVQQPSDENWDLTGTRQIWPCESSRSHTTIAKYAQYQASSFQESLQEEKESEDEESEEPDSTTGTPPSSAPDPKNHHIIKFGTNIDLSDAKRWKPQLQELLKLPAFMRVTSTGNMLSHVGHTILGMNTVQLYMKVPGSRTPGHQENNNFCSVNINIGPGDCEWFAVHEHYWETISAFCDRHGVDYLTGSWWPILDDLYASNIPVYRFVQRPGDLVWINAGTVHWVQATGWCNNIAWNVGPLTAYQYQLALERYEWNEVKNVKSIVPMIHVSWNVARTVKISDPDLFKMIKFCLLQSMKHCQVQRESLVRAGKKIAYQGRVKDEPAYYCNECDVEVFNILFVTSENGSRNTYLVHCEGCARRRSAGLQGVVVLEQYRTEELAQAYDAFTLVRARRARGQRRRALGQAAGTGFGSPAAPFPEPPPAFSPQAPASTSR
Description: This assay determines the ability of a test compound to inhibit Jarid1B, JMJD2C and JMJD3 demethylase activity. Baculovirus expressed Jarid1B (GenBank Accession #NM-006618, AA 2-751) was purchased from BPS Bioscience (Cat #50121) or custom made by MolecularThroughput. Baculovirus expressed JMJD2C (GenBank Accession #BC143571, AA 2-372) was purchased from BPS Bioscience (Cat#50105). Baculovirus expressed JMJD3 (GenBank Accession #NM-001080424, AA1043-end) was purchased from BPS Bioscience (Cat#50115).
The ability of test compounds to inhibit the activity of JMJD3 was determined in 384-well plate format under the following reaction conditions: 1 nM JMJD3, 250 nM H3K27me3-biotin labeled peptide (Anaspec cat # 64367), 1 µM alpha-ketoglutaric acid in assay buffer of 50 mM HEPES, pH7.3, 0.005% Brij35, 0.5 mM TCEP, 0.2 mg/ml BSA, 50 µM sodium L-ascorbate, 5 µM ammonium iron(II) sulfate. Reaction product is determined quantitatively by AlphaScreen detection after the addition of detection reagents anti-H3K27me1 antibody, 5 µg/ml AlphaScreen® Streptavidin-coated Donor beads, and 5 µg/ml AlphaScreen® Protein A Acceptor beads in 50 mM HEPES, pH7.3, 10 mM NaCl, 0.005% Brij35, 10 mM EDTA, 2 mg/ml BSA.
The assay reaction was initiated by the following: 3 µl of the mixture of 750 nM H3K27me3-biotin labeled peptide and 3 µM alpha-ketoglutaric acid with 3 µl of 11-point serial diluted inhibitor in 3% DMSO are added to each well of 384 well Proxiplate (Perkin Elmer), followed by the addition of 3 µl of 3 nM JMJD3 to initiate the reaction. The reaction mixture is incubated at room temperature for 20 minutes, and terminated by the addition of 3 µl of appropriate dilution of anti H3K27me1 antibody in 50 mM HEPES, pH7.3, 10 mM NaCl, 0.005% Brij35, 10 mM EDTA, 2 mg/ml BSA. Plates will then incubated at room temperature for 1 hour, followed by addition of 3 µl of 25 µg/ml AlphaScreen® Streptavidin-coated Donor beads and AlphaScreen® Protein A Acceptor beads in 50 mM HEPES, pH7.3, 10 mM NaCl, 0.005% Brij35, 10 mM EDTA, 2 mg/ml BSA. Plates will then be read by EnVision Multilabel Reader in AlphaScreen mode after minimum 2 hour incubation at room temperature. The AlphaScreen signal for each well is used to determine inhibition constant (IC50).

Row | IC50 (FBXL10) | IC50 (JMJD3) | Compound
1 | ≤ 100 nM | > 10000 nM | Fc1ccc(CCn2cnc(-c3cc(-c4nn[nH]c4C(F)(F)F)ccn3)c2)c(F)c1 [Example 86, 2-{1-[2-(2,4-difluorophenyl)ethyl]-1H-imidazol-4-yl}-4-[5-(trifluoromethyl)-1H-1,2,3-triazol-4-yl]pyridine]
2 | ≤ 100 nM | > 10000 nM | Fc1cccc(F)c1CCn1cnc(-c2cc(-c3nn[nH]c3C(F)(F)F)ccn2)c1 [Example 87, 2-{1-[2-(2,6-difluorophenyl)ethyl]-1H-imidazol-4-yl}-4-[5-(trifluoromethyl)-1H-1,2,3-triazol-4-yl]pyridine]
3 | ≤ 100 nM | > 10000 nM | Fc1ccc(F)c(CCn2cnc(-c3cc(-c4nn[nH]c4C(F)(F)F)ccn3)c2)c1 [Example 88, 2-{1-[2-(2,5-difluorophenyl)ethyl]-1H-imidazol-4-yl}-4-[5-(trifluoromethyl)-1H-1,2,3-triazol-4-yl]pyridine]
4 | ≤ 100 nM | > 10000 nM | O=C(c1ccccc1)N1CCC[C@@H](n2cnc(-c3cc(-c4nn[nH]c4C(F)(F)F)ccn3)c2)C1 [Example 89, 2-{1-[(3R)-1-benzoylpiperidin-3-yl]-1H-imidazol-4-yl}-4-[5-(trifluoromethyl)-1H-1,2,3-triazol-4-yl]pyridine]
5 | ≤ 100 nM | > 10000 nM | O=C(c1ccccc1)N1CCC[C@H](n2cnc(-c3cc(-c4nn[nH]c4C(F)(F)F)ccn3)c2)C1 [Example 90, 2-{1-[(3S)-1-benzoylpiperidin-3-yl]-1H-imidazol-4-yl}-4-[5-(trifluoromethyl)-1H-1,2,3-triazol-4-yl]pyridine]
6 | ≤ 100 nM | > 10000 nM | Cc1ccc(CCn2cnc(-c3cc(-c4nn[nH]c4C(F)(F)F)ccn3)c2)cc1 [Example 91, 2-{1-[2-(4-methylphenyl)ethyl]-1H-imidazol-4-yl}-4-[5-(trifluoromethyl)-1H-1,2,3-triazol-4-yl]pyridine]
7 | ≤ 100 nM | > 10000 nM | FC(F)(F)c1[nH]nnc1-c1ccnc(-c2cn(CCc3ccc(Cl)cc3)cn2)c1 [Example 92, 2-{1-[2-(4-chlorophenyl)ethyl]-1H-imidazol-4-yl}-4-[5-(trifluoromethyl)-1H-1,2,3-triazol-4-yl]pyridine]
8 | ≤ 100 nM | > 10000 nM | COc1ccc(CCn2cnc(-c3cc(-c4nn[nH]c4C(F)(F)F)ccn3)c2)cc1 [Example 93, 2-{1-[2-(4-methoxyphenyl)ethyl]-1H-imidazol-4-yl}-4-[5-(trifluoromethyl)-1H-1,2,3-triazol-4-yl]pyridine]
9 | 100 to 1000 nM | > 10000 nM | FC(F)(F)c1ccc(CCn2cnc(-c3cc(-c4nn[nH]c4C(F)(F)F)ccn3)c2)cc1 [Example 94, 4-[5-(trifluoromethyl)-1H-1,2,3-triazol-4-yl]-2-(1-{2-[4-(trifluoromethyl)phenyl]ethyl}-1H-imidazol-4-yl)pyridine]
10 | 100 to 1000 nM | > 10000 nM | CC(C)(C)c1ccc(CCn2cnc(-c3cc(-c4nn[nH]c4C(F)(F)F)ccn3)c2)cc1 [Example 96, 2-{1-[2-(4-tert-butylphenyl)ethyl]-1H-imidazol-4-yl}-4-[5-(trifluoromethyl)-1H-1,2,3-triazol-4-yl]pyridine]
11 | ≤ 100 nM | > 10000 nM | Cn1cnc(-c2cc(-c3nn[nH]c3C(F)(F)F)ccn2)c1-c1ccc(F)cc1 [Example 97, 2-[5-(4-fluorophenyl)-1-methyl-1H-imidazol-4-yl]-4-[5-(trifluoromethyl)-1H-1,2,3-triazol-4-yl]pyridine]
12 | ≤ 100 nM | > 10000 nM | FC(F)(F)c1[nH]nnc1-c1ccnc(-c2cn(CC3CCOc4ccccc43)cn2)c1 (stereo not shown) [Example 98, 2-{1-[(3,4-dihydro-2H-1-benzopyran-4-yl)methyl]-1H-imidazol-4-yl}-4-[5-(trifluoromethyl)-1H-1,2,3-triazol-4-yl]pyridine]
13 | 100 to 1000 nM | > 10000 nM | Fc1cccc2c1CCCC2Cn1cnc(-c2cc(-c3nn[nH]c3C(F)(F)F)ccn2)c1 (stereo not shown) [Example 99, 2-{1-[(5-fluoro-1,2,3,4-tetrahydronaphthalen-1-yl)methyl]-1H-imidazol-4-yl}-4-[5-(trifluoromethyl)-1H-1,2,3-triazol-4-yl]pyridine]
14 | 100 to 1000 nM | > 10000 nM | Fc1ccc2c(c1)CCCC2Cn1cnc(-c2cc(-c3nn[nH]c3C(F)(F)F)ccn2)c1 (stereo not shown) [Example 100, 2-{1-[(6-fluoro-1,2,3,4-tetrahydronaphthalen-1-yl)methyl]-1H-imidazol-4-yl}-4-[5-(trifluoromethyl)-1H-1,2,3-triazol-4-yl]pyridine]
15 | 100 to 1000 nM | > 10000 nM | Fc1ccc2c(c1)C(Cn1cnc(-c3cc(-c4nn[nH]c4C(F)(F)F)ccn3)c1)CCC2 (stereo not shown) [Example 101, 2-{1-[(7-fluoro-1,2,3,4-tetrahydronaphthalen-1-yl)methyl]-1H-imidazol-4-yl}-4-[5-(trifluoromethyl)-1H-1,2,3-triazol-4-yl]pyridine]
16 | 1000 to 10000 nM | > 10000 nM | Cc1ccc2c(c1)CCCC2Cn1cnc(-c2cc(-c3nn[nH]c3C(F)(F)F)ccn2)c1 (stereo not shown) [Example 102, 2-{1-[(6-methyl-1,2,3,4-tetrahydronaphthalen-1-yl)methyl]-1H-imidazol-4-yl}-4-[5-(trifluoromethyl)-1H-1,2,3-triazol-4-yl]pyridine]
17 | 100 to 1000 nM | > 10000 nM | Cc1ccc2c(c1)C(Cn1cnc(-c3cc(-c4nn[nH]c4C(F)(F)F)ccn3)c1)CCC2 (stereo not shown) [Example 103, 2-{1-[(7-methyl-1,2,3,4-tetrahydronaphthalen-1-yl)methyl]-1H-imidazol-4-yl}-4-[5-(trifluoromethyl)-1H-1,2,3-triazol-4-yl]pyridine]
18 | 100 to 1000 nM | > 10000 nM | COc1ccc2c(c1)CCCC2Cn1cnc(-c2cc(-c3nn[nH]c3C(F)(F)F)ccn2)c1 (stereo not shown) [Example 105, 2-{1-[(6-methoxy-1,2,3,4-tetrahydronaphthalen-1-yl)methyl]-1H-imidazol-4-yl}-4-[5-(trifluoromethyl)-1H-1,2,3-triazol-4-yl]pyridine]
19 | 100 to 1000 nM | > 10000 nM | COc1ccc2c(c1)C(Cn1cnc(-c3cc(-c4nn[nH]c4C(F)(F)F)ccn3)c1)CCC2 (stereo not shown) [Example 106, 2-{1-[(7-methoxy-1,2,3,4-tetrahydronaphthalen-1-yl)methyl]-1H-imidazol-4-yl}-4-[5-(trifluoromethyl)-1H-1,2,3-triazol-4-yl]pyridine]
20 | 100 to 1000 nM | > 10000 nM | COc1cccc2c1C(Cn1cnc(-c3cc(-c4nn[nH]c4C(F)(F)F)ccn3)c1)CCC2 (stereo not shown) [Example 107, 2-{1-[(8-methoxy-1,2,3,4-tetrahydronaphthalen-1-yl)methyl]-1H-imidazol-4-yl}-4-[5-(trifluoromethyl)-1H-1,2,3-triazol-4-yl]pyridine]
